In experiment [1] the target is T1, proMMP9 (Rattus norvegicus, UniProt P50282).
T1 construct: endogenous in cells; host or cells: primary synoviocytes from arthritic female Lewis rats, TNFα-stimulated in collagen gels
Put plainly: Activation of proMMP9 in rat synoviocyte cultures (Western blot). It counts as cell-based. The note with it: 80 kD band, pAb-1246. The text has this: A primary synoviocytes line was derived from the periarticular tissue of arthritic rats. Arthritis was induced in female Lewis rats following an i.p. administration of streptococcal cell wall peptidoglycan polysaccharides (J Exp Med 1977; 146:1585-1602). Rats with established arthritis were sacrificed, and hind-limbs were severed, immersed briefly in 70% ethanol, and placed in a sterile hood. The skin was removed and the inflamed tissue surrounding the tibia-tarsal joint was harvested using a scalpel. Tissue from six rats was pooled, minced to approximately 8 mm^3 pieces, and cultured in Dulbecco's Modified Eagle's Medium (DMEM) containing 15% fetal calf serum (FCS). In the following weeks, cells migrated out of the tissue piece, proliferated, and formed a monolayer of adherent cells. The synoviocytes were lifted from culture plates with 0.05% trypsin and passaged weekly at 1:4 ratios in DMEM containing 10% FCS. Synoviocytes were used at passage 9 to investigate the ability of Example 64 to inhibit the maturation of MMP9 to active form.
Rat synoviocytes spontaneously expressed and activated MMP9 when cultured in collagen gels and stimulated with tumor necrosis factor-alpha (TNFα) (FIG. 1 and Table 3). Eight volumes of an ice-cold solution of 3.8 mg/mL rat tail collagen (Sigma Cat #C3867-1VL) were mixed with 1 volume of 1 M sodium bicarbonate and 1 volume of 10× Roswell Park Memorial Institute medium. The pH of the mixture was adjusted to pH 7 with 1 N sodium hydroxide and equal volumes of the pH-adjusted collagen solution were mixed with DMEM containing 0.8 million synoviocytes per mL. One half mL volumes were dispensed into Costar 24-well culture dishes and placed for one hr at 37° C. and 5% CO2, during which time the collagen solution formed a gel. Individual gels were dislodged into wells of 12-well Costar plates containing 1 mL/well of DMEM adjusted to contain 0.05% BSA and 100 ng/mL mouse TNFα (R&D Systems Cat #410-MT-010). […] After overnight culture at 37° C. and 5% CO2, wells were adjusted to contain an additional 0.5 mL of DMEM containing 0.05% BSA and Example 64 at 4× the final desired concentration (final culture volumes were 2 mL). The plates were cultured an additional 48 hrs, at which time 1 mL of conditioned media were harvested into fresh eppendorf tubes containing 40 μL/mL of a 50% slurry of gelatin-conjugated sepharose (GE Healthcare Cat #17-0956-01). Samples were rotated for 2 hrs at 4° C. before centrifugation 1 min×200 g. Supernatants were discarded. The gelatin-sepharose pellets were washed once with 1 mL of ice cold DMEM, resuspended in 50 μL of 2× reducing Leamli buffer and heated 5 min at 95° C. […] Chemiluminesence signal was analyzed using a ChemiDoc imaging system (BioRad Laboratories) and Quantity One® image software. […]
(In western blotting, separated proteins are transferred to a membrane and probed.)

In experiment [2] the target is proMMP13(1-268) (SEQ ID NO:7) (Homo sapiens, UniProt P45452). Put plainly: ProMMP13/Plasmin P126 Activation Assay. Further details: 6xHis (C); made in house; host or cells: HEK293 (transient, secreted). The settings on record: 8 nM proMMP13, 16 nM plasmin, 40 min 37° C. It counts as biochemical. On the procedure:
On the day of assay, proMMP13(1-268) (SEQ ID NO:7) purified from HEK293 cells and plasmin were diluted to 160 nM and 320 nM, respectively, in assay buffer. The reaction volume was 50 μL. […] The plate was sealed and incubated for 40 min at 37° C. […] Plasmin was not reactive towards P-126 substrate under these conditions.

The target of experiment [3] is T2, MMP9 (Rattus norvegicus, UniProt P50282).
T2 construct: Pro and active MMP9 were abundantly present in ankles of SCW-induced vehicle-treated rats; from tissue; host or cells: ankle (tibia-tarsus joint) homogenates of female Lewis rats
The experiment is described as follows: Pro and active MMP9 in ankles of rats with SCW-induced arthritis by Western blot. It counts as in vivo. The note with it: Day 26, four hours after AM dose, mAb-L51/82, FIG. 3A. On the procedure: Hind-limbs were skinned, severed just above the tibia-tarsus joint and below the metatarsals, and the tibia-tarsus joints (ankles) were weighed, snap frozen and pulverized on dry ice using a hammer and anvil. The pulverized tissue was suspended in 3 volumes (w:v) of ice-cold homogenization buffer containing 50 mM Tris pH 7.5, 150 mM NaCl, 5 mM EDTA, 1% Triton X100, 0.05% Brij 30, 10% dimethylsulfoxide and Complete EDTA-free Protease Inhibitor Cocktail (Roche Diagnostics). The suspended tissue was homogenized sequentially with a Kinematica AG Polytron and a Dounce homogenizer. Homogenates were centrifuged at 16,000×g for 10 min at 4° C. and the soluble fractions were saved. Dimethylsulfoxide was removed from a portion of each soluble fraction using PD MiniTrap™ G-25 desalting columns (GE Healthcare). Homogenates (0.25 mL), free of DMSO, were diluted with an equal volume of binding buffer (i.e., homogenization buffer without dimethylsufoxide) and adjusted to contain 50 μL of a 50% slurry of gelatin-conjugated sepharose. Following 2 hours of rotation at 4° C. the beads were washed twice in binding buffer and eluted in 100 μL 2×-reducing Laemmli buffer with heating to 95° C. for 5 minutes. […]

Results on 1 molecule are retold here after patent US20120129842A1, “BISTHIAZOLE INHIBITORS OF PRO-MATRIX METALLOPROTEINASE ACTIVATION” (priority 2010, published 2012).

A word on the inhibition: it is the change of the read-out against control, counted positive when it falls. Higher therefore signals a response far below the control. Broadly, the IC50 is the concentration that inhibits the measured activity by half. Low values mean greater potency in that assay, high ones weaker potency in that assay.

T1 sequence (P50282 20-708 limits assumed): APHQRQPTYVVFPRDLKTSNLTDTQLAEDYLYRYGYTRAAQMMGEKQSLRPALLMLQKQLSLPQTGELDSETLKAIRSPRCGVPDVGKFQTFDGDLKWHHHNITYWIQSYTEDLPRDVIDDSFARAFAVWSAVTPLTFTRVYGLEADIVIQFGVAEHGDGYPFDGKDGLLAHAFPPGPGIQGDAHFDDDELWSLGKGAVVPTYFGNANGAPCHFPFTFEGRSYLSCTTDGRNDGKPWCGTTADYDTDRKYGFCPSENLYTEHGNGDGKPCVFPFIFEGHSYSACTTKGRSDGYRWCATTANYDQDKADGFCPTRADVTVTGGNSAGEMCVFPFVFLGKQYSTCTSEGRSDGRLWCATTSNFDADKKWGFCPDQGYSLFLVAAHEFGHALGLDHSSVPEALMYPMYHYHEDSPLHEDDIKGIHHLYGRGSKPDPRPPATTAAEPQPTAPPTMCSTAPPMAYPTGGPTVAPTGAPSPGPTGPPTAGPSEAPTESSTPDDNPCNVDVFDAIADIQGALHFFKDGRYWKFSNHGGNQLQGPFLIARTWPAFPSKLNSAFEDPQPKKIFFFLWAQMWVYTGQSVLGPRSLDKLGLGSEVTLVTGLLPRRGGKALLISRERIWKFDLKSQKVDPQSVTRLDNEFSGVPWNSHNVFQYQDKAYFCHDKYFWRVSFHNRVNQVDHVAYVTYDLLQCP
T2 sequence (P50282 108-708): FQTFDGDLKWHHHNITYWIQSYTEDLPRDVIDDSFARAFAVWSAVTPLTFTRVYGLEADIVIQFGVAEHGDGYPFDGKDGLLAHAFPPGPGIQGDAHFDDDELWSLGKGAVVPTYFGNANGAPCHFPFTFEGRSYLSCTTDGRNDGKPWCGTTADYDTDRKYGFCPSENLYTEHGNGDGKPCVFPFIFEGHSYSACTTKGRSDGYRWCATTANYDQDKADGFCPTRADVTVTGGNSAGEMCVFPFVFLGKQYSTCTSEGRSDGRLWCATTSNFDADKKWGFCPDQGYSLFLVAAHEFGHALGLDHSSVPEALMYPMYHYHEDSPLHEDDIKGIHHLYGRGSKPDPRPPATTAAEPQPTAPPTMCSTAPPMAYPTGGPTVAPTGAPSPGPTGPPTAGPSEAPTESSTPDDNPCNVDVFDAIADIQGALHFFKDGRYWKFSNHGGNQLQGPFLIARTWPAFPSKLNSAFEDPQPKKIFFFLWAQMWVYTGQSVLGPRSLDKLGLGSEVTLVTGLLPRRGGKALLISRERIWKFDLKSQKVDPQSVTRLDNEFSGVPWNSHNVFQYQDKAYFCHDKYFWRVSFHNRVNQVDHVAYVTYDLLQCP

The molecule `Cc1nc(C)c(-c2csc(Nc3cc(S(N)(=O)=O)ccc3OC(C)C)n2)s1` [Example 64, 3-(2′,4′-Dimethyl-[4,5′]bithiazolyl-2-ylamino)-4-isopropoxy-benzenesulfonamide.HBr] displayed an inhibition at 0.37 µM in experiment [1] (0.37 μM) of 12%. Moreover, in experiment [1] (1.1 μM), the inhibition at 1.1 µM was 46%. The molecule also returned an inhibition at 3.3 µM in experiment [1] (3.3 μM) of 86%. The same molecule returned an inhibition at 10 µM in experiment [1] (10 μM) of 97%. In experiment [2], this molecule displayed an IC50 of 3.3 µM. Besides, the “abundance of proMMP9 in ankles” value in experiment [3] is “did not reduce the abundance of proMMP9”.
